{"source": "patent US8772449B2", "about": "“Cell-penetrating peptides” (Toray Industries, Inc., priority 2009, dated 2014)", "key": {"[1]": {"test": "Intranasal administration of interferon β with peptide to rats (plasma interferon β level)", "details": "Example 6, interferon β 0.18×10^6 IU/kg alone or with 0.5 mM peptide, FIG. 7"}, "[2]": {"test": "Intestinal administration of insulin with peptide (ileal loop) to rats", "format": "in vivo", "details": "Example 8, insulin 50 IU/kg with 0.5 mM peptide, male SD rat, FIG. 10", "protocol": "A silicone tube was […] cm distant from the ileocecal junction toward the ileum, and a feeding needle was inserted at a position about 10 cm upward therefrom. Further, sutures were passed through an area of 6 cm between these. From the feeding needle, 20 ml of phosphate buffered saline (PBS) at pH 7.4 prewarmed to 37° C. was fed at a flow rate of 5 ml/min. to allow discharging of the contents, and the silicone tube was plugged, followed by administering 1 ml of PBS prewarmed to 37° C. from the feeding needle and keeping it retained for 30 minutes. After the administration, the feeding needle was quickly plugged and the intestinal tract was returned into the abdominal cavity, followed by closing the site of incision with a clip and allowing the rat to keep still. […] The rat during the experiment was fixed on its back on a hot plate kept at 37° C. by a hot-water circulating pump to regulate the body temperature. […] Also for rats to which the same quantity of the insulin solution alone was subcutaneously administered, the blood collection and the measurement were carried out in the same manner."}, "[3]": {"test": "Intranasal administration of exendin-4 with peptide to rats (plasma exendin-4 level)", "details": "Example 7, exendin-4 0.25 mg/kg alone or with 0.5 mM peptide, FIG. 8"}, "[4]": {"test": "Intranasal administration of insulin with peptide to rats (blood glucose, plasma insulin, bioavailability, AUC)", "details": "Example 4, insulin 1 IU/kg alone or mixed with 0.5 mM peptide (L-body), male SD rat, FIG. 5"}, "[5]": {"test_system": "nasal cavity", "test": "Evaluation of damage to nasal cavity (LDH leakage into washing solution)", "details": "Example 9; mixed solution of peptide and insulin, intranasal, washing 15 minutes later, FIG. 11"}, "[6]": {"test_system": "HeLa cells", "test": "Evaluation of promotion of insulin transfer into cells (rhodamine-labeled insulin incorporated, fluorescence intensity of lysate)", "format": "cell-based", "details": "for incorporation of rhodamine-labeled insulin into the cells (in words): Example 2, rhodamine-labeled human insulin 100 μg/ml alone or with peptide, 3 hours, FIG. 2", "protocol": "In DMEM medium supplemented with 10% FBS, 0.2 ml of HeLa cells were plated on a 96-well glass bottom plate, and the cells were cultured at 37° C. for 48 to 72 hours to allow the cells to adhere to the bottom surface.\n(§1) The rhodamine-labeled insulin was prepared by the following method. […] To the resulting solution, 4 mg of NHS-rhodamine (Pierce) dissolved in 0.5 ml of DMSO was added, and the reaction was allowed to proceed at room temperature overnight.\n(§2) Further, the amount of fluorescein incorporated into the cells was measured by the same method as in Example 1."}, "[7]": {"test_system": "HeLa cells", "test": "Evaluation of peptide permeability into cells (fluorescein-labeled peptide incorporated into HeLa cells)", "format": "cell-based", "protocol": "In DMEM medium supplemented with 10% FBS, 0.2 ml of HeLa cells were plated on a 96-well glass bottom plate, and the cells were cultured at 37° C. for 48 to 72 hours to allow the cells to adhere to the bottom surface. After 3 times of washing with 200 μl of PBS, 50 μl of DMEM medium containing each of the peptides of SEQ ID NOs:1 to 6 labeled with fluorescein at the amino terminus (contract synthesis by Sigma-Genosys) at a final concentration of 5 μM and FBS at a final concentration of 10% was added to each well. The plate was incubated in a CO2 incubator for 3 hours and then washed 3 times with DMEM medium supplemented with 10% FBS, followed by addition of 50 μl of a lysis solution (10 mM Tris-HCl, 5 mM EDTA, 100 mM NaCl, 1% SDS, 100 μg/ml proteinase K) and 1 hour of incubation at room temperature, to decompose the cells and the peptides incorporated into the cells. The whole lysis solution was recovered, and the amount of fluorescein incorporated into the cells was measured using a fluorescence intensity measuring apparatus (HORIBA FLUOROMAX-3) at an excitation wavelength of 494 nm and a fluorescence wavelength of 512 nm.\nas §2"}, "[8]": {"test_system": "HeLa cells", "test": "Evaluation of promotion of transfer of polystyrene beads into cells", "format": "cell-based", "details": "Example 3, beads alone or with peptide 1 μM, 3 hours, FIG. 3", "protocol": "In DMEM medium supplemented with 10% FBS, 0.2 ml of HeLa cells were plated on a 96-well glass bottom plate, and the cells were cultured at 37° C. for 48 to 72 hours to allow the cells to adhere to the bottom surface. After 3 times of washing with 200 μl of PBS, 50 μl of DMEM medium containing each of the peptides of SEQ ID NOs:1 to 6 labeled with fluorescein at the amino terminus (contract synthesis by Sigma-Genosys) at a final concentration of 1 μM, fluorescent polystyrene beads (Fluorospheres Carboxylated Microbeads, 0.1 μm; manufactured by Molecular probes, Inc.) at a final concentration of 1 μl/well and 10% FBS was added to each well. The plate was incubated in a CO2 incubator for 3 hours and then washed 3 times with DMEM medium supplemented with 10% FBS, followed by addition of 50 μl of a lysis solution (10 mM Tris-HCl, 5 mM EDTA, 100 mM NaCl, 1% SDS, 100 μg/ml proteinase K) and 1 hour of incubation at room temperature, to decompose the cells. The whole lysis solution was recovered, and the amount of fluorescent polystyrene beads incorporated into the cells was measured using a fluorescence intensity measuring apparatus at an excitation wavelength of 580 nm and a fluorescence wavelength of 605 nm."}, "[9]": {"test_system": "HeLa cells", "test": "Localization of rhodamine-labeled insulin in HeLa cells by confocal laser microscope", "format": "cell-based", "details": "Example 2, peptide added together with rhodamine-labeled insulin, FIG. 12", "protocol": "as §1"}, "[10]": {"details": "rat, in vivo, 0.25 mg/kg"}}, "note": "Read-outs that look alike come from different tables or passages of the source. Ends that are not written are not given here.", "data": [{"substance": "KWFRIQMQIKKWRNRR [SEQ ID NO:4]", "values": [{"measurement": "plasma interferon β level after intranasal administration", "setting": "[1]", "value": "transfer of interferon β into the blood from immediately after the administration"}, {"measurement": "blood insulin level after intestinal administration, compared to insulin alone", "setting": "[2]", "value": "evident increase"}]}, {"substance": "RWFKIQMQIRRWKNKK [SEQ ID NO:1, R W F K I Q M Q I R R W K N K K]", "values": [{"measurement": "plasma interferon β level after intranasal administration", "setting": "[1]", "value": "transfer of interferon β into the blood from immediately after the administration"}, {"measurement": "plasma exendin-4 level after intranasal administration", "setting": "[3]", "value": "transfer of exendin-4 into the blood from immediately after the administration"}, {"measurement": "blood insulin level after intranasal administration", "setting": "[4]", "value": "transfer of insulin into the blood was observed from immediately after the administration"}, {"measurement": "blood insulin level after intestinal administration, compared to insulin alone", "setting": "[2]", "value": "evident increase"}, {"measurement": "release of LDH from the nasal cavity, compared to 5% (w/v) sodium taurodeoxycholate", "setting": "[5]", "value": "significantly lower"}]}, {"substance": "rhodamine-labeled insulin: human insulin reacted with NHS-rhodamine (Pierce); fluorescent probe, added alone", "values": [{"measurement": "incorporation of rhodamine-labeled insulin into the cells (in words)", "setting": "[6]", "value": "almost no incorporation"}]}, {"substance": "SEQ ID NO:6: Random peptide, cell membrane non-permeable; sequence not printed (EYDLSTAGGAAAC; Synthetic peptide random peptide)", "values": [{"measurement": "incorporation of fluorescein-labeled peptide into the cells (in words)", "setting": "[7]; Example 1, fluorescein-labeled peptide 5 μM, 3 hours, FIG. 1", "value": "hardly incorporated into the cells"}, {"measurement": "fluorescein incorporated into the cells, of the fluorescein added", "setting": "[7]; Example 12, fluorescein-labeled peptides, incubation 5 hours, FIG. 15", "value": "about 0.2%"}, {"measurement": "incorporation of fluorescent polystyrene beads into the cells (in words)", "setting": "[8]", "value": "almost no incorporation"}, {"measurement": "incorporation of rhodamine-labeled insulin into the cells (in words)", "setting": "[6]", "value": "almost no incorporation"}, {"measurement": "rhodamine-labeled insulin incorporated into the cells, of the amount added", "setting": "[6]; Example 12, fluorescein-labeled peptides added together with rhodamine-labeled insulin, incubation 5 hours, FIG. 16", "value": "about 0.2%"}, {"measurement": "permeation of rhodamine-labeled insulin into the cells, confocal laser microscope", "setting": "[9]", "value": "did not allow permeation"}]}, {"substance": "exendin-4", "values": [{"measurement": "plasma exendin-4 level after intranasal administration", "setting": "[10]", "value": "almost no increase"}]}]}
